Data reported in DBAASP.
Converted amounts (≈) assume the structure as drawn. One block for each compound: values may come before it.

Legend:
Assay in all cases: ≥ marks a high value that may be exact or a test limit, other limits are often not marked, values filed in µg/mL are converted to µM
[1] = test system: Micrococcus luteus NBRC 3333
[2] = test system: Escherichia coli NBRC 3972
[3] = test system: Candida viswanathii NBRC 10321
[4] = test system: Staphylococcus epidermidis NBRC 12993
[5] = test system: Aspergillus oryzae NBRC 100959
[6] = test system: Pseudomonas aeruginosa PAO1
[7] = test system: Pseudomonas aeruginosa 919
[8] = test system: Pseudomonas aeruginosa 253
[9] = test system: Pseudomonas aeruginosa 910
Escherichia coli ML-35p = test system: Escherichia coli ML-35p
[10] = test system: Pseudomonas aeruginosa 522/17
[11] = test system: Staphylococcus aureus ATCC 33591
[12] = test system: Acinetobacter baumannii 7226/16
[13] = test system: Staphylococcus aureus SG511
[14] = test system: Escherichia coli ESBL 521/17
[15] = test system: Staphylococcus aureus 1399/17
[16] = test system: Klebsiella pneumoniae ESBL 344/17
[17] = test system: Acinetobacter baumannii ATCC 19606
[18] = test system: Pseudomonas aeruginosa ATCC 10145
Escherichia coli D31 = test system: Escherichia coli D31
[19] = test system: Staphylococcus aureus ATCC 27660
[20] = test system: Staphylococcus aureus ATCC 25923
Escherichia coli O157:H7 = test system: Escherichia coli O157:H7
[21] = test system: Listeria monocytogenes 10403s
[22] = test system: Salmonella enterica subsp. enterica serovar Typhimurium ATCC 13311
Acinetobacter baumannii = test system: Acinetobacter baumannii
[23] = test system: Enterococcus faecalis ATCC 29212
[24] = test system: Escherichia coli ATCC 25922
[25] = test system: Staphylococcus epidermidis ATCC 12228
[26] = test system: Pseudomonas aeruginosa ATCC 27853
[27] = test system: Bacillus cereus ATCC 11778
Vibrio cholerae O1 Inaba = test system: Vibrio cholerae O1 Inaba
[28] = test system: Shigella sonnei ATCC 11060
[29] = test system: Enterococcus faecium ATCC 700221
[30] = test system: Acinetobacter baumannii ATCC BAA-747
[31] = test system: Klebsiella pneumoniae ATCC 700603
[32] = test system: Staphylococcus aureus ATCC 43300
[33] = test system: Salmonella enterica ATCC 6539
Escherichia coli W3110 = test system: Escherichia coli W3110
[34] = test system: Klebsiella pneumoniae ATCC BAA-1705
[35] = test system: Cryptococcus neoformans ATCC 208821
[36] = test system: Staphylococcus aureus SH1000
[37] = test system: Candida albicans ATCC 90028

MIC [1]: 14.5 µM (≈ 25 µg/mL) | MIC [2]: ≥ 116 µM | MIC [3]: 14.5 µM (≈ 25 µg/mL) | MIC [4]: 14.5 µM (≈ 25 µg/mL) | MIC [5]: 7.27 µM (≈ 12.5 µg/mL)
Compound: CC[C@H](C)[C@H](NC(=O)[C@H](CCSC)NC(=O)[C@H](CCCN=C(N)N)NC(=O)[C@H](CCCN=C(N)N)NC(=O)[C@H](CC(C)C)NC(=O)[C@H](Cc1ccc(O)cc1)NC(=O)[C@H](CCCN=C(N)N)NC(=O)[C@H](CCCCN)NC(=O)[C@@H](NC(=O)[C@H](CCCCN)NC(=O)[C@@H](N)CCCN=C(N)N)[C@@H](C)CC)C(=O)N[C@@H](Cc1c[nH]c2ccccc12)C(=O)O [RKIKRYLRRMIW]

MIC [6]: 4 µM (≈ 7.51 µg/mL) | MIC [7]: ≥ 32 µM | MIC [8]: 11.3 µM (≈ 21.2 µg/mL) | MIC [9]: 8 µM (≈ 15 µg/mL)
Compound: CC[C@H](C)[C@H](NC(=O)[C@@H](N)Cc1ccccc1)C(=O)N[C@@H](CCCCN)C(=O)N[C@@H](CCCN=C(N)N)C(=O)N[C@@H](CCCCN)C(=O)N[C@@H](CO)C(=O)N[C@@H](CCCN=C(N)N)C(=O)N[C@@H](Cc1c[nH]c2ccccc12)C(=O)N[C@@H](Cc1c[nH]c2ccccc12)C(=O)N[C@@H](CCCCN)C(=O)N[C@@H](Cc1c[nH]c2ccccc12)C(=O)N[C@@H](CCCN=C(N)N)C(=O)N[C@H](C(N)=O)[C@@H](C)O [FIKRKSRWWKWRT]

MIC (Escherichia coli ML-35p): 4 µM (≈ 15 µg/mL) | MIC [10]: 16 µM (≈ 60 µg/mL) | MIC [11]: 8 µM (≈ 30 µg/mL) | MIC [12]: 11.3 µM (≈ 42.4 µg/mL) | MIC [13]: 0.5 µM (≈ 1.87 µg/mL) | MIC [14]: 4 µM (≈ 15 µg/mL) | MIC [15]: 8 µM (≈ 30 µg/mL) | MIC [16]: 8 µM (≈ 30 µg/mL)
Compound: CC[C@H](C)[C@H](NC(=O)[C@H](CCCN=C(N)N)NC(=O)[C@@H](NC(=O)[C@@H]1CCCN1C(=O)[C@H](Cc1c[nH]c2ccccc12)NC(=O)[C@@H]1CCCN1C(=O)[C@H](CCCN=C(N)N)NC(=O)[C@H](CCCN=C(N)N)NC(=O)[C@H](Cc1ccccc1)NC(=O)[C@@H]1CCCN1C(=O)[C@H](CC(C)C)NC(=O)[C@H](CCCN=C(N)N)NC(=O)[C@H](Cc1ccccc1)NC(=O)[C@@H](N)CCCN=C(N)N)[C@@H](C)CC)C(=O)N[C@@H](Cc1cnc[nH]1)C(=O)N1CCC[C@H]1C(=O)N1CCC[C@H]1C(=O)N1CCC[C@H]1C(=O)N[C@@H](Cc1ccccc1)C(=O)N[C@@H](Cc1ccc(O)cc1)C(=O)N1CCC[C@H]1C(=O)N[C@@H](Cc1c[nH]c2ccccc12)C(=O)N1CCC[C@H]1C(=O)N[C@@H](Cc1ccccc1)C(=O)N[C@@H](CCCN=C(N)N)C(=O)N[C@@H](CCCN=C(N)N)C(=O)N[C@@H](Cc1ccccc1)C(=O)N[C@@H](CC(C)C)C(=O)O [RFRLPFRRPWPIRIHPPPFYPWPFRRFL]

MIC [17]: > 15 µM | MIC [18]: 15 µM (≈ 27.2 µg/mL) | MIC (Escherichia coli D31): 15 µM (≈ 27.2 µg/mL) | MIC [19]: 15 µM (≈ 27.2 µg/mL)
Compound: C[C@H](N)C(=O)N[C@@H](C)C(=O)N[C@@H](Cc1c[nH]c2ccccc12)C(=O)N[C@@H](CCCCN)C(=O)N[C@@H](CCCCN)C(=O)N[C@@H](C)C(=O)N[C@@H](C)C(=O)N[C@@H](CCCCN)C(=O)N[C@@H](CCCCN)C(=O)N[C@@H](C)C(=O)N[C@@H](C)C(=O)N[C@@H](CCCCN)C(=O)N[C@@H](CO)C(=O)N[C@@H](C)C(=O)N[C@@H](CCCCN)C(=O)N[C@@H](CCCCN)C(=O)N[C@@H](C)C(=O)NCC(N)=O [AAWKKAAKKAAKSAKKAG]

MIC [20]: > 133 µM | MIC (Escherichia coli O157:H7): ≥ 133 µM | MIC [21]: ≥ 133 µM | MIC [22]: ≥ 133 µM | MIC (Acinetobacter baumannii): ≥ 133 µM | MIC [23]: > 133 µM | MIC [24]: > 133 µM | MIC [25]: > 133 µM | MIC [26]: > 133 µM | MIC [27]: ≥ 133 µM | MIC [28]: ≥ 133 µM
Compound: CC[C@H](C)[C@H](NC(=O)[C@H](CCCN=C(N)N)NC(=O)[C@H](CCCCN)NC(=O)[C@H](CCCCN)NC(=O)[C@@H](NC(=O)[C@H](CCCCN)NC(=O)[C@H](CCC(=O)O)NC(=O)[C@H](CCCCN)NC(=O)[C@@H](N)CCCN=C(N)N)[C@@H](C)CC)C(=O)NCC(=O)N[C@@H](CCCCN)C(=O)N[C@H](C(=O)N[C@@H](CC(=O)O)C(=O)N[C@@H](CCCN=C(N)N)C(=O)N[C@@H](CC(C)C)C(N)=O)[C@@H](C)CC [RKEKIKKRIGKIDRL]
MIC (Vibrio cholerae O1 Inaba): ≥ 133 µM

MIC [29]: 25 µM (≈ 31.9 µg/mL) | MIC [30]: 25 µM (≈ 31.9 µg/mL) | MIC [24]: 3 µM (≈ 3.83 µg/mL) | MIC [26]: 25 µM (≈ 31.9 µg/mL) | MIC [31]: 25 µM (≈ 31.9 µg/mL) | MIC [32]: 3 µM (≈ 3.83 µg/mL) | MIC [33]: 6 µM (≈ 7.66 µg/mL)
Compound: NCC(=O)NCC(=O)N[C@@H](Cc1cnc[nH]1)C(=O)NCC(=O)N[C@@H](Cc1c[nH]c2ccccc12)C(=O)N[C@@H](CCCN=C(N)N)C(=O)N[C@@H](Cc1c[nH]c2ccccc12)C(=O)N[C@@H](Cc1ccc(O)cc1)C(=O)N[C@@H](CS)C(=O)N[C@@H](CCCN=C(N)N)C(N)=O [GGHGWRWYCR]

MIC (Escherichia coli W3110): 4 µM (≈ 9 µg/mL) | MIC [34]: ≥ 64 µM
Compound: CC[C@H](C)[C@H](N)C(=O)N[C@@H](CC(C)C)C(=O)N[C@@H](Cc1c[nH]c2ccccc12)C(=O)N[C@@H](C)C(=O)N[C@@H](CCCCN)C(=O)N[C@@H](Cc1c[nH]c2ccccc12)C(=O)NCC(=O)N[C@@H](CC(C)C)C(=O)N[C@@H](CCCCN)C(=O)N[C@@H](CC(C)C)C(=O)N[C@@H](CC(C)C)C(=O)N[C@@H](CCCN=C(N)N)C(=O)N[C@@H](Cc1ccc(O)cc1)C(=O)N[C@@H](CCCN=C(N)N)C(=O)N[C@@H](CCCN=C(N)N)C(=O)N[C@H](C(=O)N[C@@H](Cc1ccc(O)cc1)C(=O)O)[C@@H](C)CC [ILWAKWGLKLLRYRRIY]

MIC [35]: 23 µM (≈ 32.5 µg/mL) | MIC [17]: > 23 µM | MIC [24]: > 23 µM | MIC [36]: ≥ 50 µM | MIC [26]: > 23 µM | MIC [31]: > 23 µM | MIC [32]: > 23 µM | MIC [37]: 23 µM (≈ 32.5 µg/mL)
Compound: CC[C@H](C)[C@H](NC(=O)[C@H](CC(=O)O)NC(=O)[C@H](Cc1ccccc1)NC(=O)[C@H](CC(C)C)NC(=O)CN)C(=O)N[C@H](C(=O)N[C@@H](CCCCN)C(=O)N[C@@H](CCCCN)C(=O)N[C@H](C(=O)N[C@H](C(=O)NCC(=O)N[C@@H](C)C(=O)N[C@@H](CC(C)C)C(=O)NCC(N)=O)C(C)C)C(C)C)C(C)C [GLFDIVKKVVGALG]
